18 molecules from PubChem BioAssay (NCI) can be followed below.

Where “and” joins values, the source holds several entries; their conditions need not be identical. Equal values may be shown once.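 Following 48 hours of exposure in 96-well plates, responses at five concentrations were used to interpolate endpoints linearly. GI50 is the concentration that inhibits growth by half. TGI denotes the concentration required for complete inhibition of growth.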

Assay in all cases: NCI tumour cell line growth inhibition, 48 h
The subject of test [1] is UACC-62 melanoma.
In test [2] the test system is OVCAR-8 ovarian.
The test system of test [3] is OVCAR-5 ovarian.
The subject of test [4] is SF-268 CNS.
The subject of test [5] is MDA-MB-231 breast.
Test [6] relates to HL-60(TB) leukemia.
The subject of test [7] is LOX IMVI melanoma.
Test [8] relates to EKVX NSCLC.
Test [9] has as its system SNB-75 CNS.
Test [10] relates to HOP-92 NSCLC.

Take `CC(C)=CCCC(C)c1ccc(C)c2c1OCN(CC1CCNCC1)C2` (stereo unspecified): the GI50 in test [1] was 15.5 µM; in test [2], 18.4 µM; in [3], 14.3 µM; in [4] it was 16.6 µM; in [5] it was 12.5 µM; in test [6] it was 3.9 µM. Also, the GI50 in test [7] was 5.87 µM; in [8], 20.7 µM; in test [9], 11.9 µM. Also, the TGI in test [1] is 29.9 µM; in test [2], 34.5 µM; in test [3], 28.8 µM; in test [4] it was 33.3 µM; in test [5], 28.3 µM; in test [6], 18.9 µM. In addition, the TGI in test [7] was determined as 20.2 µM; in [8], 66.9 µM; in test [9] it was 24.3 µM.
For the molecule `CC12OC(c3ccccc3)=CC(c3ccc(Cl)cc3)=C1C(c1ccccc1)=CC2=O` (stereo unspecified), the GI50 was 49.4 µM in test [1]; > 100 µM in test [2]; > 100 µM in [3]; > 100 µM in [4]; 67.2 µM in test [5]; 23.2 µM in test [6]. The GI50 is 46 µM in [7], > 100 µM in test [8] and 33.4 µM in test [9]. Moreover, the TGI in test [1] is > 100 µM; in test [2], > 100 µM; in [3], > 100 µM; in [4] it was > 100 µM; in test [5], > 100 µM; in [6], 77.7 µM. In addition, the TGI in test [7], in test [8] and in [9] was > 100 µM throughout.
Take `CC[C@H](NC(=O)[C@H](C)NC)C(=O)N1C[C@@H](O)C[C@H]1Cc1c(-c2[nH]c3cc(F)ccc3c2C[C@@H]2C[C@H](O)CN2C(=O)[C@H](CC)NC(=O)[C@H](C)NC)[nH]c2cc(F)ccc12`: the GI50 is > 100 µM in test [1]; 31.2 µM in [2]; > 100 µM in test [3]; > 100 µM in test [4]; 0.0349 µM in [5]; 7.15 µM in [6]. The GI50 in test [7] was > 59.6 µM; in test [9], 2.65 µM; in [10], 7.7 µM. Further, the TGI was > 100 µM in test [1]; > 100 µM in [2]; > 100 µM in test [3]; > 100 µM in test [4]; 2.18 µM in test [5]; 42.9 µM in test [6]. Also, the TGI in [7] is > 100 µM; in [9], > 100 µM; in test [10] it was 40.8 µM.
For the molecule `O=c1c(Oc2ccc(F)cc2F)cc2cnc(NC3CCOCC3)nc2n1C1CCS(=O)(=O)CC1`, the GI50 in [1], in test [2], in test [3], in test [4], in test [5] and in [6] was > 25 µM in each case. For the same molecule, the GI50 in test [7], in test [9] and in test [10] was > 25 µM each time. The TGI in test [1], in [2], in [3], in test [4], in test [5] and in test [6] was > 25 µM throughout. Also, the TGI in test [7], in [9] and in [10] was > 25 µM throughout.
In the case of `CC(=O)[O-].CC(=O)[O-].[Pt+2].c1cscn1.c1cscn1`, the GI50 in [1] was > 100 µM; in [2] it was 31.3 µM; in [3], > 100 µM; in [4], > 100 µM; in test [5] it was > 100 µM; in test [6] it was 36.4 µM. The GI50 in test [7] is 65.7 µM; in [9], > 100 µM; in test [10], > 100 µM. Moreover, the TGI is > 100 µM in [1]; 71.7 µM in test [2]; > 100 µM in test [3]; > 100 µM in test [4]; > 100 µM in test [5]; > 100 µM in test [6]. The TGI in test [7], in [9] and in test [10] was > 100 µM each time.
For the molecule `C=CCC(N[C@H](CO)c1ccccc1)c1ccc2ccccc2n1` (stereo partly specified), the GI50 in test [1] was > 100 µM; in test [2], > 100 µM; in [3] it was > 100 µM; in test [5], > 100 µM; in test [6] it was 48.7 µM; in test [7], > 100 µM. For the same molecule, the GI50 in test [8] and in [9] was > 100 µM throughout. Further, the TGI in [1], in test [2], in test [3], in [5], in test [6] and in test [7] was > 100 µM in each case. Besides, the TGI in [8] and in test [9] was > 100 µM in each case.
With `COc1cc2c(cc1OCCCOc1cc3c(cc1OC)C(=O)N1C[C@H](F)C[C@H]1C=N3)N=C[C@@H]1C[C@@H](F)CN1C2=O`, the GI50 in test [1] was 4.79 µM; in [2], 6.3 µM; in test [3], 13.2 µM; in test [4] it was 2.26 µM; in test [5] it was 16 µM; in test [7], 2.41 µM. For the same molecule, the GI50 in test [8] is 18.7 µM; in test [10] it was 5.18 µM. Further, the TGI in [1] was found to be 17.5 µM; in test [2] it was 18.5 µM; in test [3], 25.9 µM; in test [4], 6.01 µM; in test [5] it was 31.3 µM; in test [7] it was 10.5 µM. Further, the TGI in test [8] was 35.5 µM; in test [10], 18 µM.
Turning to `O=Cc1ccc(-c2cc(C=O)c(-c3cccs3)[nH]2)s1`, the GI50 in test [1] was 46 µM; in test [2], > 100 µM; in test [3], 66.4 µM; in test [4], > 100 µM; in test [5] it was > 100 µM; in test [7], > 100 µM. For the same molecule, the values for the GI50 in [8], in [9] and in test [10] were 47.8 µM, 29.5 µM and > 100 µM, respectively. Further, the TGI was 75 µM and > 100 µM in test [1]; 75 µM and > 100 µM in test [2]; > 100 µM in test [3]; > 100 µM in test [4]; 75 µM and > 100 µM in [5]; 75 µM and > 100 µM in [7]. The TGI was 75 µM and > 100 µM in test [8]; 52.2 µM and > 100 µM in test [9]; 75 µM and > 100 µM in test [10].
Consider `NOCC(=O)O`, for which the GI50 in test [1] was 34.4 µM; in test [2], > 100 µM; in [3] it was > 100 µM; in test [4], > 100 µM; in [5] it was 53.2 µM; in [6], 32.2 µM. Moreover, the GI50 in test [7], in test [8] and in test [9] was > 100 µM in each case. Further, the TGI in [1], in test [2], in [3], in [4], in test [5] and in test [6] was > 100 µM each time. Also, the TGI in test [7], in test [8] and in [9] was > 100 µM each time.
With `O=C1CC(NC(=O)C(F)(F)F)c2c1csc2Br` (stereo unspecified), the TGI is > 100 µM in test [1]; > 100 µM in test [2]; 6.03 µM in test [3]; 62.3 µM in test [4]; > 100 µM in test [5]; > 100 µM in test [6]. The TGI in test [7] was > 100 µM; in test [8], 38.2 µM; in test [10] it was > 100 µM.
With `CCC1(CC)C(=O)OC(=O)C1(CC)CC`, the TGI in [1], in test [2], in test [4], in [5], in test [6] and in test [7] was > 100 µM in each case. The TGI in [8] and in [9] was > 100 µM each time.
Take `COc1ccc(N2C(=O)CC(Cl)C2=O)cc1` (stereo unspecified): the TGI is 46.5 µM in [1]; 30.2 µM in test [2]; 34.1 µM in test [3]; > 100 µM in test [4]; 36.5 µM in test [5]; 58.9 µM in test [7]. In addition, the TGI in test [8] was > 100 µM; in test [9], > 100 µM; in test [10], 73.7 µM.
As to `Cn1ccnc1CC(C)(O)c1ccccc1` (stereo unspecified), the TGI in test [1], in test [2], in [3], in test [4], in test [5] and in test [7] was > 100 µM in each case. In addition, the TGI in test [8], in test [9] and in test [10] was > 100 µM each time.
Regarding `CCOC(=O)c1cc(C#N)c(=O)n(/N=C(\C)c2ccncc2)c1O`, the GI50 in test [1], in test [2], in test [3], in test [4], in test [5] and in test [7] was > 100 µM throughout. In addition, the GI50 in test [8] and in test [10] was > 100 µM in each case. For the same molecule, the TGI in test [1], in test [2], in [3], in test [4], in [5] and in [7] was > 100 µM each time. Besides, the TGI in [8] and in test [10] was > 100 µM throughout.
In the case of `COc1cc(OC)c(/C=C/S(=O)(=O)Cc2cnc(OC)c(N)c2)c(OC)c1`, the GI50 is < 0.01 µM in [1]; < 0.024 µM in test [2]; < 0.0482 µM in test [3]; < 0.0328 µM in test [4]; < 0.0276 µM in test [5]; < 0.0167 µM in test [6]. Moreover, the GI50 was < 0.0233 µM in test [7] and 0.223 µM in test [8]. Besides, the TGI in [1], in [2], in test [3], in test [4], in [5] and in test [7] was > 100 µM in each case. Also, the TGI in [8] is > 100 µM.
Take `Cn1c([N+](=O)[O-])cnc1/C=C1\Oc2ccccc2C1=O`: the GI50 in [1] is 0.522 µM; in [2], 0.186 µM; in test [3], 1.99 µM; in [4], 0.303 µM; in test [5], 0.703 µM; in test [6], 0.28 µM. The GI50 in [7] was 0.176 µM; in [9], 1.51 µM; in test [10], 0.762 µM. For the same molecule, the TGI worked out at 2.22 µM in test [1]; 0.677 µM in test [2]; 6.63 µM in test [3]; 1.66 µM in test [4]; 4.39 µM in test [5]; 1.5 µM in test [6]. The TGI in test [7] was determined as 0.506 µM; in test [9], 4.87 µM; in test [10], 3.37 µM.
For the molecule `O=C(/C=C/c1ccc(F)cc1)c1ccc(Cl)cc1Cl`, the GI50 in test [1] is 39.8 µM; in test [2], 33.7 µM; in [3], 32.4 µM; in test [4], 74.5 µM; in [5], > 100 µM; in test [7], 41.1 µM. For the same molecule, the GI50 in test [8] is 89.9 µM; in [10], 30 µM. Further, the TGI in test [1] was > 100 µM; in test [2], > 100 µM; in test [3], 96.5 µM; in test [4], > 100 µM; in test [5], > 100 µM; in test [7], > 100 µM. In addition, the TGI in test [8] is > 100 µM; in test [10], 80.8 µM.
For `O=c1c2c(nc3n1CCS3)[nH]c1ccccc12`, the GI50 in [1] was 62.4 µM; in test [2], > 100 µM; in test [3], > 100 µM; in [4], > 100 µM; in [5], 33.4 µM; in test [7] it was 59.5 µM. Further, the GI50 in test [8] was > 100 µM; in [9], 30.5 µM; in test [10], > 100 µM. The TGI in [1], in test [2], in test [3], in [4], in [5] and in test [7] was > 100 µM in each case. Further, the TGI in [8], in test [9] and in test [10] was > 100 µM each time.
